The target of this test is Dipeptidyl peptidase 2 (Homo sapiens, UniProt Q9UHL4). Briefly: Dipeptidyl Peptidase Inhibition Assay.

Take `C[C@@H]1C(=O)NCCCN1C(=O)C[C@H](N)Cc1cc(F)ccc1F` [(3R)-4-[(3R)-3-amino-4-(2,5-difluorophenyl)butanoyl]-3-methyl-1,4-diazepan-2-one]: the IC50 – broadly, the midpoint of a concentration-inhibition curve – was > 100 µM.

In the case of `C[C@@H]1C(=O)N[C@@H](C(F)(F)F)CCN1C(=O)C[C@H](N)Cc1cc(F)c(F)cc1F` [(3R,7R)-4-[(3R)-3-amino-4-(2,4,5-trifluorophenyl)butanoyl]-3-methyl-7-(trifluoromethyl)-1,4-diazepan-2-one], the half-maximal inhibitory concentration (IC50) is > 100 µM.
